“Also recorded” adds a separate entry of the source.
Columns and labels:
[1] = test system: severely burned (>40% total body surface area) children; test: Energy expenditure by metabolic cart (indirect calorimetry); format: in vivo, human
Protocol: Between midnight and 5 AM on the day of study, oxygen consumption (VO2), carbon dioxide production (VCO2), respiratory quotient (RQ) and resting energy expenditure (REE) were determined with a metabolic cart (Sensormedics Model 2900; Yorba Linda, Calif.) at 30° C. ambient room temperature during continuous feeding.

[2] = test system: severely burned (>40% total body surface area) children; test: Fat-free mass by whole body potassium 40 counting; format: in vivo, human
Protocol: (§1) Two weeks after treatment was started, a second series of metabolic and protein kinetic studies was performed. Subjects who received at least a four-week treatment course underwent a second whole-body potassium measurement. At discharge, subjects underwent body composition scanning by a dual image x-ray absorptiometry.
Determination of Fat-Free Mass using Potassium 40 Whole Body Counting. Fat-Free Mass was determined by Whole Body Potassium 40 (^40K) scintillation counting in a heavily shielded low background noise counting room, a 32 NaI detector array, and computed data analysis which has been validated for use in children.^20,21 The counting precision of the instrument used is <1.5%, which was calibrated daily using BOMAB Phantoms with simulated fat overlays. All studies were done after feedings and IV fluids were discontinued to minimize exogenous potassium contamination.

[3] = test system: severely burned (>40% total body surface area) children; test: Lean body mass by dual image x-ray absorptiometry (DEXA); format: in vivo, human
Protocol: as §1
Total body lean mass and fat mass were measured by dual image x-ray absorptometry. A Hologic model QDR-4500W DEXA (Hologic Inc, Waltham, Mass.) with the pediatric software package was used to measure body composition.

[4] = test system: severely burned (>40% total body surface area) children; test: Clinical safety: sepsis, held doses, complications during hospitalization; format: in vivo, human
[5] = test system: severely burned (>40% total body surface area) children; test: Serum glucose, potassium and hormone values; details: result in words
[6] = test system: severely burned (>40% total body surface area) children; test: Vital signs (hourly heart rate, blood pressure, temperature)
[7] = test system: severely burned (>40% total body surface area) children; test: Stable isotope cross-leg skeletal muscle protein kinetic study
[8] = between metabolic studies, result in words
[9] = result in words, listed as propranolol
[10] = two weeks of oral propranolol, mean ± SEM
[11] = after treatment, n = 11, model derived, mean, listed as heads read shifted one entry

Compound: CC(C)NCC(O)COc1cccc2ccccc12 (stereo not drawn) [Propranolol, propranolol]
- Carbon dioxide production vs non-treated group [1, 8]: significant decreases
- Oxygen consumption vs non-treated group [1, 8]: significant decreases
- Respiratory quotient [1, 8]: did not change
- Resting energy expenditure vs baseline / non-treated group [1, 9]: lower than baseline and lower than those of the control group; also recorded: significant decreases
- Carbon dioxide production, change from baseline [1, 10]: −64 ± 22
- Oxygen consumption, change from baseline [1, 10]: −56 ± 22
- Respiratory quotient, change from baseline [1, 10]: −0.1 ± 0.1
- Resting energy expenditure, change from baseline [1, 10]: −422 ± 197
- Loss of fat free mass ([2]; 4 weeks of treatment, twelve propranolol subjects, p=0.003 vs controls): 1%
- Fat free mass by whole body potassium counter ([2]; four weeks of treatment, result in words): did not change; also recorded: preserved
- Improvement of lean body mass percentage vs non-treated control group ([3]; at discharge, p=0.01): ~6%
- Lean body mass percentage ([3]; at full healing and discharge, 9 treated subjects): 79.1±1.2%
- Subjects who developed sepsis ([4]; during hospitalization, p=1.0 vs controls): 4 of 13
- Subjects in whom one or more doses were held temporarily for a mean arterial pressure between 60 and 65 ([4]; during treatment course): 3 of 13
- Asthma ([4]; result in words): No asthma occurred
- Evidence of tissue hypoperfusion (wound conversion to full thickness, metabolic acidosis) ([4]; result in words): No other direct or indirect evidence of tissue hypoperfusion
- Negative clinical sequela resulting from β-blockade ([4]; result in words): No negative clinical sequela
- Serum potassium values vs non-treated group [5]: higher
- Heart rates vs baseline and control group ([6]; during beta blockade, p<0.05, result in words): lower than baseline and lower than those of the control group
- Decrease in heart rate compared with patient's own baseline and with non-treated controls ([6]; oral propranolol titrated, p=0.03): 20%
- Blood pressure vs non-treated group / with treatment [6, 9]: not statistically different; also recorded: no significant decrease
- Diastolic blood pressure, change from baseline [6, 10]: −5 ± 5 mm/mHg
- Mean arterial pressure, change from baseline [6, 10]: 1 ± 8 mHg
- Systolic blood pressure, change from baseline [6, 10]: −4 ± 5 mHg
- FSR, fractional synthetic rate, rate of incorporation of tracer into muscle over time ([7]; after treatment, n = 11, mean): 0.34 %/hr
- FM,A, inward transport into myocyte [7, 11]: 0.264 μmol Phe/min/100 ml leg
- FM,O, muscle protein breakdown [7, 11]: 0.287 μmol Phe/min/100 ml leg
- FO,M, muscle protein synthesis [7, 11]: 0.337 μmol Phe/min/100 ml leg
- FV,A, A→V shunt past muscle [7, 11]: 0.821 μmol Phe/min/100 ml leg
- FV,M, outward transport from myocyte [7, 11]: 0.214 μmol Phe/min/100 ml leg
- Fin, amino acid inflow into leg via femoral artery [7, 11]: 1.085 μmol Phe/min/100 ml leg
- Fout, amino acid outflow from leg via femoral vein [7, 11]: 1.034 μmol Phe/min/100 ml leg
- Rd, rate of disappearance, approximating protein synthesis [7, 11]: 0.157 μmol Phe/min/100 ml leg
- Protein synthesis measured by direct incorporation of the tracer ([7]; long-term β-blockade, result in words): increased
- Muscle protein net balance from baseline and vs non-treated controls ([7]; result in words): improved
- Muscle protein net balance from baseline and vs non-treated controls [7, 9]: achieved anabolic levels

Reference: patent publication US7098248B2, “Beta-adrenergic blockade reversal of catabolism after severe burn” (Research Development Foundation, priority 2001, dated 2006)
